In ChEMBL document CHEMBL1146736, “Simple aromatic compounds containing propenone moiety show considerable dual COX/5-LOX inhibitory activities” (Bioorg Med Chem Lett, 2004):

Experiments:
[1] = target: T1, Prostaglandin G/H synthase 2 (Mus musculus, UniProt Q05769); assay: Inhibitory activity against murine Prostaglandin G/H synthase 2.
T1 sequence (Q05769 whole entry): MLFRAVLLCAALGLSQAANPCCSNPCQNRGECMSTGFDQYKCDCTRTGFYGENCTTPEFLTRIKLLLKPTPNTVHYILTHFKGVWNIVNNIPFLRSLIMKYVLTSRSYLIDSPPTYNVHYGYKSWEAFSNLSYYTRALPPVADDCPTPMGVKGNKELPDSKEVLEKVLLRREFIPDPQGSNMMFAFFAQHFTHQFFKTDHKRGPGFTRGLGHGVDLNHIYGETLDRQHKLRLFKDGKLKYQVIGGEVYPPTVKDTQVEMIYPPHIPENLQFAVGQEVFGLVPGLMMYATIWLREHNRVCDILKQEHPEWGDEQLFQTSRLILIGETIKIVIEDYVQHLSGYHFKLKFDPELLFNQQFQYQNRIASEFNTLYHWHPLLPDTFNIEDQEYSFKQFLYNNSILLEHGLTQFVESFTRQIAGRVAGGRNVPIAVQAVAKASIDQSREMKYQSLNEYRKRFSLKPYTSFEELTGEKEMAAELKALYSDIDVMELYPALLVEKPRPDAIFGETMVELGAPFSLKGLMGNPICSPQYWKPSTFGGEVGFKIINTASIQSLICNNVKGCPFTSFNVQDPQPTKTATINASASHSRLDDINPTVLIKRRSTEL

[2] = target: T2, Prostaglandin G/H synthase 1 (Mus musculus, UniProt P22437); assay: Inhibitory activity against murine prostaglandin G/H synthase 1.
T2 sequence (P22437 whole entry): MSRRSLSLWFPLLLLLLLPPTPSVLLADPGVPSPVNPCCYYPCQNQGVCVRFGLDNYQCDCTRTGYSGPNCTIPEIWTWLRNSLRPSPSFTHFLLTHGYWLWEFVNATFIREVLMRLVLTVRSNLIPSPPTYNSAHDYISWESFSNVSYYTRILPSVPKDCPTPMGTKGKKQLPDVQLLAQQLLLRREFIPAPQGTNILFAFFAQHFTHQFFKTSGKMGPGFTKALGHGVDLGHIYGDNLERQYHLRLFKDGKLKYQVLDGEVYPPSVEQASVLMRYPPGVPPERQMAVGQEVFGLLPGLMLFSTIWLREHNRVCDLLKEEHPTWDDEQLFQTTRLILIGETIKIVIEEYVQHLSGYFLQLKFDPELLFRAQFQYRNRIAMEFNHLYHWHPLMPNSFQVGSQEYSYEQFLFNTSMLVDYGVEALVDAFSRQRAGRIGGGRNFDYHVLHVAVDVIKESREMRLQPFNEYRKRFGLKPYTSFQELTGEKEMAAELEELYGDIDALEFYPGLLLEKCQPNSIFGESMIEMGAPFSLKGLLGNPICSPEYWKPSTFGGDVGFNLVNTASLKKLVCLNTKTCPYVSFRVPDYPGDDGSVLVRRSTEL

[3] = target: T3, Polyunsaturated fatty acid 5-lipoxygenase (Mus musculus, UniProt P48999); assay: Inhibitory activity against murine […].
T3 sequence (P48999 whole entry): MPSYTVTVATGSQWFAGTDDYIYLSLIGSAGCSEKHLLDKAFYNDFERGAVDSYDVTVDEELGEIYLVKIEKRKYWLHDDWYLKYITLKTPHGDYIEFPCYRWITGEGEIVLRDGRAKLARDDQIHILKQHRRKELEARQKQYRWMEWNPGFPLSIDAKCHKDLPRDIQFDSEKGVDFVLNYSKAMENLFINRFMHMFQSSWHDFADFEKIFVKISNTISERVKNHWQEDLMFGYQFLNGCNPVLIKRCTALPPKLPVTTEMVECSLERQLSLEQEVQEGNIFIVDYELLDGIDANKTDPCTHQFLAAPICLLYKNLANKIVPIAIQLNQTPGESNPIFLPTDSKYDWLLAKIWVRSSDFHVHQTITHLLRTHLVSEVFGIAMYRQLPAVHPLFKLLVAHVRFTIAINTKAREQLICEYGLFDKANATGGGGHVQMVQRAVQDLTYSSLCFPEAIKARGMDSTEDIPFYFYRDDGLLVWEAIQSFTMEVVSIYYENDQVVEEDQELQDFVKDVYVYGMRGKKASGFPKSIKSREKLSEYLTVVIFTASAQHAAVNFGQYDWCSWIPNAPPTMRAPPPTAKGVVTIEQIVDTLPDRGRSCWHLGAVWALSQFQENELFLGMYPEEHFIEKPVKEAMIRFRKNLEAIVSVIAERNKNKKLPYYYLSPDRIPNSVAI

[4] = target: T2, Prostaglandin G/H synthase 1; assay: Inhibitory activity against Prostaglandin G/H synthase 1 in mice
[5] = target: T3, Polyunsaturated fatty acid 5-lipoxygenase; assay: Inhibitory activity against […] in mice
[6] = target: T1, Prostaglandin G/H synthase 2; assay: Inhibitory activity against cyclooxygenase-2 in micc

Row | SMILES | IC50 [1] | IC50 [2] | IC50 [3] | IC50 [4] | IC50 [5] | IC50 [6]
1 | O=C(/C=C/c1ccccc1)c1ccccn1 | 28.7 µM | 32.5 µM | 8.13 µM |  |  | 
2 | O=C(/C=C/c1ccco1)c1cccnc1 | 12 µM |  | 12 µM | 59.7 µM |  | 
3 | O=C(/C=C/c1ccsc1)c1cccs1 | 26.7 µM | 59.9 µM | 5.9 µM |  |  | 
4 | O=C(/C=C/c1ccco1)c1ccco1 | 29 µM | 80.7 µM | 12.8 µM |  |  | 
5 | O=C(/C=C/c1cccs1)c1ccccc1 | 9.02 µM | 46.2 µM | 9.5 µM |  |  | 
6 | O=C(/C=C/c1ccoc1)c1cccnc1 | 7.92 µM | 21 µM | 13.4 µM |  |  | 
7 | O=C(/C=C/c1ccco1)c1ccccn1 | 7.44 µM | 23.6 µM | 13.5 µM |  |  | 
8 | O=C(/C=C/c1ccsc1)c1cccnc1 | 18.4 µM | 13 µM |  |  | 10 µM | 
9 | O=C(/C=C/c1ccoc1)c1ccccn1 |  | 23.6 µM | 13.8 µM |  |  | 12 µM
10 | O=C(/C=C/c1ccccn1)c1ccco1 | 1.89 µM | 65.3 µM | 0.37 µM |  |  | 
11 | Cc1ccsc1/C=C/C(=O)c1ccccn1 | 23.4 µM | 40.1 µM | 6.51 µM |  |  | 
12 | O=C(/C=C/c1ccco1)c1ccc(Cl)s1 | 14.1 µM | 57.4 µM | 7.52 µM |  |  | 
13 | O=C(/C=C/c1ccsc1)c1ccccn1 | 5.22 µM | 13 µM | 7.6 µM |  |  | 
14 | O=C(/C=C/c1ccco1)c1cccs1 | 13.7 µM | 60.7 µM | 14 µM |  |  | 
15 | O=C(/C=C/c1cccs1)c1cccs1 | 3.4 µM | 9.01 µM | 4.8 µM |  |  | 
16 | O=C(/C=C/c1ccccc1)c1ccccc1 [CHALCONE] | 11.2 µM | 22.1 µM | 12.2 µM |  |  | 
17 | CC1=C(C)C(=O)C(CCCCC#CCCCC#CCO)=C(C)C1=O [DOCEBENONE] |  |  | 0.032 µM |  |  | 
18 | CS(=O)(=O)Nc1ccc([N+](=O)[O-])cc1OC1CCCCC1 [NS-398] |  | 1.67 µM |  |  |  | 
